Laboratory results reported in publication PMC9851200, “Multiparameter phenotypic screening for endogenous TFEB and TFE3 translocation identifies novel chemical series modulating lysosome function” (Autophagy, 2022).

Key:
Type in all cases: binding
[1] = target: T1, kinases (KINOMEscan panel) (Homo sapiens, UniProt Q8IWQ3); details: kinase BRSK2; NEW KINOMEscan
T1 sequence (Q8IWQ3 1-736): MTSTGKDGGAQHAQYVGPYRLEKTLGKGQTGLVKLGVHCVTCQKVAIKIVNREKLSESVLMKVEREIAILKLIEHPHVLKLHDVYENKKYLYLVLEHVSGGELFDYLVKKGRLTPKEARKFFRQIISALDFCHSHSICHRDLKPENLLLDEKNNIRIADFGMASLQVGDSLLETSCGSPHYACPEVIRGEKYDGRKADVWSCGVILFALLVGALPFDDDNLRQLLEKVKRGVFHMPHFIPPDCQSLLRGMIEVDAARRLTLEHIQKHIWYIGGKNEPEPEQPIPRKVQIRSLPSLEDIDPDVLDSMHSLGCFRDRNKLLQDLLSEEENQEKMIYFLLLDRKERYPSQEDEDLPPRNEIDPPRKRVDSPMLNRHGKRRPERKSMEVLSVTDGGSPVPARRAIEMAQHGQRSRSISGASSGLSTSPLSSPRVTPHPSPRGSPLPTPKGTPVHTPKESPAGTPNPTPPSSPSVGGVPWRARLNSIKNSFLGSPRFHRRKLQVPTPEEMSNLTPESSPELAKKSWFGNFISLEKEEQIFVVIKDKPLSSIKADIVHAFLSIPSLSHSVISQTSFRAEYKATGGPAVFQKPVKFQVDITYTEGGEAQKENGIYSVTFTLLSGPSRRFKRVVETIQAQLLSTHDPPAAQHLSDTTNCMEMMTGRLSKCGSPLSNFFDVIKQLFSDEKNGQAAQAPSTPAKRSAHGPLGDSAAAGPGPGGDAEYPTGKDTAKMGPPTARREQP

[2] = target: kinases (KINOMEscan panel) (Homo sapiens, UniProt P11309); details: NEW KINOMEscan
[3] = target: kinases (KINOMEscan panel) (Homo sapiens, UniProt Q9UIK4); details: kinase DAPK2; NEW KINOMEscan
[4] = target: kinases (KINOMEscan panel) (Homo sapiens, UniProt P07949); details: kinase RET; NEW KINOMEscan
[5] = target: kinases (KINOMEscan panel) (Homo sapiens, UniProt Q15569); details: TESK1; NEW KINOMEscan
[6] = target: T2, kinases (KINOMEscan panel) (Homo sapiens, UniProt Q8TD19); details: NEK9; NEW KINOMEscan
T2 sequence (Q8TD19 1-979): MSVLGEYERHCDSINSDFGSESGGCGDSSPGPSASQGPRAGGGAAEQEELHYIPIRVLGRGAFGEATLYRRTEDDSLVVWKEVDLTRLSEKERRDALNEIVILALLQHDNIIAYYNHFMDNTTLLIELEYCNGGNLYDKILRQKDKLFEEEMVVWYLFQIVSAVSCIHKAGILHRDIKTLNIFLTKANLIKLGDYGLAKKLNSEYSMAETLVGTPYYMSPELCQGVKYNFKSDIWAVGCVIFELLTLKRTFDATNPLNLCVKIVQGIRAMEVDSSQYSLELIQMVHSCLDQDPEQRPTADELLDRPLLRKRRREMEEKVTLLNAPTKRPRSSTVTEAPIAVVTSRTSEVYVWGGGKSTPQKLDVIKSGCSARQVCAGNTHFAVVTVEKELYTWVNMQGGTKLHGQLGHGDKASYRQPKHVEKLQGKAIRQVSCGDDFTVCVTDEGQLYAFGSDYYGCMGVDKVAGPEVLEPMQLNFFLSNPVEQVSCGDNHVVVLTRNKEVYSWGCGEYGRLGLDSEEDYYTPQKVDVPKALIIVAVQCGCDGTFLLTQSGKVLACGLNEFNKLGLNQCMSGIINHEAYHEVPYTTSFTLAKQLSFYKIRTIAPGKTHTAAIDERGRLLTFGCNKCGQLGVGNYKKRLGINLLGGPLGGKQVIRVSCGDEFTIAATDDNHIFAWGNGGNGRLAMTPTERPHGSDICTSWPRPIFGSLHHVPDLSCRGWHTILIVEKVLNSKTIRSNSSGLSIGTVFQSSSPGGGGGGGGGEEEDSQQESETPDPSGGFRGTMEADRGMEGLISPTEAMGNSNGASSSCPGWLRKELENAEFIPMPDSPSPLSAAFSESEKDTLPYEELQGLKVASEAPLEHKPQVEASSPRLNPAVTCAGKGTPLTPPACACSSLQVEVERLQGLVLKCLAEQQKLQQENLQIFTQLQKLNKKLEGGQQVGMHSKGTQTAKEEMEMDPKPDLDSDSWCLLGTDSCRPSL

[7] = target: kinases (KINOMEscan panel) (Homo sapiens, UniProt P08631); details: kinase HCK; NEW KINOMEscan
[8] = target: T3, kinases (KINOMEscan panel) (Homo sapiens, UniProt Q9NWZ3); details: IRAK4; NEW KINOMEscan
T3 sequence (Q9NWZ3 1-460): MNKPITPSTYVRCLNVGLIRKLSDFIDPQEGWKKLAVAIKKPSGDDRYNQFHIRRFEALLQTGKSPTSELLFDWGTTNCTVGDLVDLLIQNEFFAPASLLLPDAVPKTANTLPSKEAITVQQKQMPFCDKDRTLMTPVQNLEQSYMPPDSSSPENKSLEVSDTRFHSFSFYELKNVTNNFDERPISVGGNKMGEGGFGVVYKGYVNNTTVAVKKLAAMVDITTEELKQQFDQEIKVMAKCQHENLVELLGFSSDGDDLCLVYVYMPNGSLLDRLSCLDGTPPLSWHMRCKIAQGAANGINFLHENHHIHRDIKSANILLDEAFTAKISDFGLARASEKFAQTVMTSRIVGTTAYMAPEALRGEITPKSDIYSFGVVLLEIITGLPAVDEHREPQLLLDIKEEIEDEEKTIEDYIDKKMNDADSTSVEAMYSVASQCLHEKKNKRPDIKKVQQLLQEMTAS

kinases (KINOMEscan panel) (Homo sapiens, UniProt P11309), sequence (P11309 whole entry): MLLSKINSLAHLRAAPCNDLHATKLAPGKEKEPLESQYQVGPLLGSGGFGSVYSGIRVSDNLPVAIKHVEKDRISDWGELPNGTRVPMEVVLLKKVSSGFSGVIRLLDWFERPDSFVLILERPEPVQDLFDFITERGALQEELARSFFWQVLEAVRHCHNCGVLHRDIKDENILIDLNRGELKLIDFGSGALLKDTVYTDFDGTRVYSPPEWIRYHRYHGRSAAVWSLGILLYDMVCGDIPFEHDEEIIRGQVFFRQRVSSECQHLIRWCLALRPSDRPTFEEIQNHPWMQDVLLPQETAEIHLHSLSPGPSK
kinases (KINOMEscan panel) (Homo sapiens, UniProt Q15569), sequence (Q15569 whole entry): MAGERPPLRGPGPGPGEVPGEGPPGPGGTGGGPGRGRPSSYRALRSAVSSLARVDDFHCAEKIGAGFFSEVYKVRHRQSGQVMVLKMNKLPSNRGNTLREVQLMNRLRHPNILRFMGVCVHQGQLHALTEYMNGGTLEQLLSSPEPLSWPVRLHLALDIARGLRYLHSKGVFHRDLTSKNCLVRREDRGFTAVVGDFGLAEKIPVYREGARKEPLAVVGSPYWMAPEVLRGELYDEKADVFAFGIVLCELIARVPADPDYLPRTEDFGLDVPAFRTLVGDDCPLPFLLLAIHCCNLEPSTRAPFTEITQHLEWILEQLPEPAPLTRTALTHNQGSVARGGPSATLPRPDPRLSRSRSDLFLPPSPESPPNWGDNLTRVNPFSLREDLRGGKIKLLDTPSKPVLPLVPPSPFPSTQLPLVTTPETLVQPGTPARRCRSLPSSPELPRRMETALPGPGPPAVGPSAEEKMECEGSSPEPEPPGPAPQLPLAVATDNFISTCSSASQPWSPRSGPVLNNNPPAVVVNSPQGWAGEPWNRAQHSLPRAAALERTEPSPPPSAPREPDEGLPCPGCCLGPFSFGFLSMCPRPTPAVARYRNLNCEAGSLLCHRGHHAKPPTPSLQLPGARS
kinases (KINOMEscan panel) (Homo sapiens, UniProt P07949), sequence (P07949 29-1114): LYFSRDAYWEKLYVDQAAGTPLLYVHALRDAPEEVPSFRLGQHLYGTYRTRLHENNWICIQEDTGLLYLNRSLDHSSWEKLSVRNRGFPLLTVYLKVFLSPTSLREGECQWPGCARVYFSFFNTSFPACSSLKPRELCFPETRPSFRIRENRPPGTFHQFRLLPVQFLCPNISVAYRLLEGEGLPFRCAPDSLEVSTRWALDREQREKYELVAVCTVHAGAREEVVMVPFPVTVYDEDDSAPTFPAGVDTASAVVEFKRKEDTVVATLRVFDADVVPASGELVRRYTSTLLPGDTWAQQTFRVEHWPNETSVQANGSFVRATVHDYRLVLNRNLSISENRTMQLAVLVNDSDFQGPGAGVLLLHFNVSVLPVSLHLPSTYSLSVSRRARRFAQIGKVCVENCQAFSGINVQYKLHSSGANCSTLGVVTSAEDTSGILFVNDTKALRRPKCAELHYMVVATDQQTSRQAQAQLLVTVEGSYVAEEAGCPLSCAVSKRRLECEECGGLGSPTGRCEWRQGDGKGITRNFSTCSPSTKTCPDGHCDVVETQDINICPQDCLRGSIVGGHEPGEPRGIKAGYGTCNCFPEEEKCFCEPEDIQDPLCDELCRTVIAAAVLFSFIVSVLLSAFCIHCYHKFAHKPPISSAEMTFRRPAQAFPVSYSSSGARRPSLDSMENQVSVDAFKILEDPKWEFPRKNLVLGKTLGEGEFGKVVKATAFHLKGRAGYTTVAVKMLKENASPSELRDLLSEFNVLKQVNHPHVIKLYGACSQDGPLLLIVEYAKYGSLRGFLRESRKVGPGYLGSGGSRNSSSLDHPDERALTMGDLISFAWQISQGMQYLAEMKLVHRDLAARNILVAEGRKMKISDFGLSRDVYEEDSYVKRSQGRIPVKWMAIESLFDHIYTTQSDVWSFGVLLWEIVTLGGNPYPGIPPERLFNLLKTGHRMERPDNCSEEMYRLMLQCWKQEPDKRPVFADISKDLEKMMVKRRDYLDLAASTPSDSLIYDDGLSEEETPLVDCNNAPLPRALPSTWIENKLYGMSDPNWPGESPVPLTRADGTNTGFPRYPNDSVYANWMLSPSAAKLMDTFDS
kinases (KINOMEscan panel) (Homo sapiens, UniProt P08631), sequence (P08631 whole entry): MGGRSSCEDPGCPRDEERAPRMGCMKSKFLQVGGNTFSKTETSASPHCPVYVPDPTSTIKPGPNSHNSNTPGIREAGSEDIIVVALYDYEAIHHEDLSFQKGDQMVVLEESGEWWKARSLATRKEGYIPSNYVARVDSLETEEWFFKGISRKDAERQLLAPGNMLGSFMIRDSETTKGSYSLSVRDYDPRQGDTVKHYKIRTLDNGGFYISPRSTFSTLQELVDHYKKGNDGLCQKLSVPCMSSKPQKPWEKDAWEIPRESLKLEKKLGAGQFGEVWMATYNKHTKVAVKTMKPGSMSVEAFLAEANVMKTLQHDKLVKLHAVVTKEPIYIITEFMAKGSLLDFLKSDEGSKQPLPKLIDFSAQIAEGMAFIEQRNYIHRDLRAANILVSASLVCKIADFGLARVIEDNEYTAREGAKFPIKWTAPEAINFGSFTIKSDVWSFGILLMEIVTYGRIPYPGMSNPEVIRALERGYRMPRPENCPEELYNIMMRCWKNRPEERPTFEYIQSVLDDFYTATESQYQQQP
kinases (KINOMEscan panel) (Homo sapiens, UniProt Q9UIK4), sequence (Q9UIK4 whole entry): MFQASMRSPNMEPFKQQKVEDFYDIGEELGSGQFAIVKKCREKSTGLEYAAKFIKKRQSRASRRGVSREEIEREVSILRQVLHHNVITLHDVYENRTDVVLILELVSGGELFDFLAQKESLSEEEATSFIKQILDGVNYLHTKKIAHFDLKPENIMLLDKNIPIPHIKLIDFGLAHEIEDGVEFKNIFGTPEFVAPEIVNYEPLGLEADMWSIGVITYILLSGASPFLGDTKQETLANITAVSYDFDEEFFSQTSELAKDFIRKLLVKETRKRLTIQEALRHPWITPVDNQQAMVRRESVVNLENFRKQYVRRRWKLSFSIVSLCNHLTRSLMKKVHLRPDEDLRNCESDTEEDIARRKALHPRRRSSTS

SMILES	KINOMEscan BRSK2 [1]	KINOMEscan PIM1 [2]	KINOMEscan DAPK2 [3]	KINOMEscan RET [4]	KINOMEscan TESK1 [5]	KINOMEscan NEK9 [6]	KINOMEscan HCK [7]	KINOMEscan IRAK4 [8]
Cc1cccc(-c2nc(Nc3ccc4nn(C)cc4c3)c3ccccc3n2)n1 [NK167]	9	2	0	0	0	0	14	0
Cc1cccc(-c2nc(N(C)c3ccc4ncsc4c3)c3ccccc3n2)n1 [NK-161]	12	29	0	0	0	0	16	0
